Measured values as given in ChEMBL document CHEMBL2407069, “Pyrimidone-based series of glucokinase activators with alternative donor-acceptor motif” (Bioorg Med Chem Lett, 2013).

Experiments:
[1] = Clearance in Wistar-Han rat at 1 mg/kg, iv; type: ADME, organism-based; set-up: dose 1 mg/kg, route intravenous; details: in vivo
[2] = Intrinsic clearance in human liver microsomes; type: ADME, Microsome; details: read-out: CLH
[3] = AUC in Wistar-Han rat at 5 mg/kg, po; type: ADME, organism-based; set-up: dose 5 mg/kg, route oral; details: plasma
[4] = Half life in Wistar-Han rat at 1 mg/kg, iv; type: ADME, organism-based; set-up: dose 1 mg/kg, route intravenous; details: in vivo
[5] = Lipophilicity, log D of the compound by shake-flask method; type: physicochemical; details: octanol/water
[6] = Intrinsic clearance in rat liver microsomes; type: ADME, Microsome; details: read-out: CLH
[7] = Oral bioavailability in Wistar-Han rat at 5 mg/kg; type: ADME, organism-based; details: in vivo
[8] = Volume of distribution at steady state in Wistar-Han rat at 1 mg/kg, iv; type: ADME, organism-based; set-up: dose 1 mg/kg, route intravenous; details: in vivo, read-out: Vdss
[9] = Cmax in Wistar-Han rat at 5 mg/kg, po; type: ADME, organism-based; set-up: dose 5 mg/kg, route oral; details: in vivo

| Compound | clearance [1] [mL/min/kg] | CLint scaled [2] [mL/min/kg] | AUC [3] [ng·h/mL] | half-life [4] [h] | logD [5] | CLint scaled [6] [mL/min/kg] | bioavailability [7] [%] | Vd [8] [L/kg] | Cmax [9] [ng/mL] |
| --- | --- | --- | --- | --- | --- | --- | --- | --- | --- |
| CC(C)Oc1cc(Oc2ccc(S(C)(=O)=O)cc2)cc(-c2nccc(=O)[nH]2)c1 | 61 | < 9.8 | 703 | 1.5 | 2.14 | 105 | 29 | 6.41 | 150 |
| Cc1cnc(-c2cc(Oc3ccc(S(C)(=O)=O)cc3)cc(OC(C)C)c2)[nH]c1=O | 13 | < 8 | 141 | 5.3 | 2.68 | 189 | 2 | 0.746 | 31 |
| Cc1cc(=O)[nH]c(-c2cc(Oc3ccc(S(C)(=O)=O)cc3)cc(OC(C)C)c2)n1 | – | < 8 | – | – | 2.43 | 96 | – | – | – |
| CCc1cnc(-c2cc(Oc3ccc(S(C)(=O)=O)cc3)cc(OC(C)C)c2)[nH]c1=O | – | < 8 | – | – | 3.11 | 171 | – | – | – |
| COc1cnc(-c2cc(Oc3ccc(S(C)(=O)=O)cc3)cc(OC(C)C)c2)[nH]c1=O | – | < 8 | – | – | 2.21 | < 25.4 | – | – | – |
| CC(C)Oc1cc(Oc2ccc(S(C)(=O)=O)cc2)cc(-c2ncc(Cl)c(=O)[nH]2)c1 | – | < 8 | – | – | 2.04 | < 25.4 | – | – | – |
| CNS(=O)(=O)c1ccc(Oc2cc(OC(C)C)cc(-c3nccc(=O)[nH]3)c2)cc1 | – | < 8 | – | – | 2.63 | – | – | – | – |
| CC(C)Oc1cc(Oc2cnc(C(=O)N(C)C)c(F)c2)cc(-c2nccc(=O)[nH]2)c1 | – | 8.3 | – | – | 1.54 | 102 | – | – | – |
| CC(C)Oc1cc(Oc2cnc(C(=O)N(C)C)nc2)cc(-c2nccc(=O)[nH]2)c1 | – | < 8 | – | – | 0.97 | < 25.4 | – | – | – |
| CC(C)Oc1cc(Oc2cnc(C(=O)N(C)C)cn2)cc(-c2nccc(=O)[nH]2)c1 | – | < 8 | – | – | 1.34 | 47 | – | – | – |
| CCC(CC)Oc1cc(Oc2cnc(C(=O)N(C)C)nc2)cc(-c2nccc(=O)[nH]2)c1 | 44 | 22.4 | 580 | 6 | 1.91 | 91 | 32 | 5.79 | 412 |
| CN(C)C(=O)c1ncc(Oc2cc(OC3CCCC3)cc(-c3nccc(=O)[nH]3)c2)cn1 | – | < 8 | – | – | 1.74 | 106 | – | – | – |
| C[C@@H](CO)Oc1cc(Oc2cnc(C(=O)N(C)C)nc2)cc(-c2nccc(=O)[nH]2)c1 | – | < 8 | – | – | -0.02 | 26 | – | – | – |
| COC[C@H](C)Oc1cc(Oc2cnc(C(=O)N(C)C)nc2)cc(-c2nccc(=O)[nH]2)c1 | – | < 8 | – | – | 0.43 | 38 | – | – | – |
| Cc1cnc(-c2cc(Oc3cnc(C(=O)N(C)C)nc3)cc(OC(C)C)c2)[nH]c1=O | – | < 8 | – | – | 1.48 | < 25.4 | – | – | – |
| COC[C@H](C)Oc1cc(Oc2cnc(C(=O)N(C)C)cn2)cc(-c2nccc(=O)[nH]2)c1 | – | < 8 | – | – | 0.81 | < 25.4 | – | – | – |
| Cc1cnc(-c2cc(Oc3ccc(S(=O)(=O)N(C)C)cc3)cc(O[C@@H](C)CO)c2)[nH]c1=O | – | 12 | – | – | 2.26 | – | – | – | – |
| CNS(=O)(=O)c1ccc(Oc2cc(O[C@@H](C)CO)cc(-c3ncc(C)c(=O)[nH]3)c2)cc1 | – | < 8 | – | – | 2.01 | < 25.4 | – | – | – |
| CCS(=O)(=O)c1ccc(Oc2cc(O[C@@H](C)CO)cc(-c3nccc(=O)[nH]3)c2)cc1 | 19 | < 8 | 253 | 1.8 | 1.42 | < 25.4 | 6 | 0.746 | 74 |
| Cc1ccc(NC(=O)c2cc(Oc3ccc(S(C)(=O)=O)cc3)cc(OC(C)C)c2)nc1 | – | 17 | – | – | 4.05 | 97 | – | – | – |
| CC(C)Oc1cc(Oc2ccc(S(C)(=O)=O)cc2)cc(-c2cccc(=O)[nH]2)c1 | – | < 8 | – | – | 2.82 | 349 | – | – | – |
| CC(C)Oc1cc(Oc2ccc(S(C)(=O)=O)cc2)cc(-c2cncc(=O)[nH]2)c1 | – | 11 | – | – | 2.27 | 61 | – | – | – |
